This is an account of results in article PMC4865847, “Putative histidine kinase inhibitors with antibacterial effect against multi-drug resistant clinical isolates identified by in vitro and in silico screens” (Scientific Reports, 2016).

Series [1] has as its target T1, E. coli PhoR (PhoR^E) (Escherichia coli, UniProt P08400).
T1 construct: The catalytic portion (DHp and CA domain) of E. coli PhoR (PhoR^E); made in house; host or cells: E. coli RIL
Description: Aggregation analysis by native-PAGE, PhoR^E. As to conditions: 2 mM (S5 and S6 5 mM), 10% DMSO. On the procedure:
(§1) E. coli PhoR and EnvZ, and S. aureus PhoR ([…], final concentration) were prepared in kinase buffer. […] DMSO in the assays was maintained to a final concentration 10% (v/v). After 30 min of incubation at room temperature Native polyacrylamide gel electrophoresis (Native-PAGE) loading buffer was added and samples loaded. Coomassie blue staining was used for protein visualization.

The target in the next series is T2, T. maritima HK853 (Thermotoga maritima, UniProt Q9WZV7).
T2 sequence (Q9WZV7 232-489): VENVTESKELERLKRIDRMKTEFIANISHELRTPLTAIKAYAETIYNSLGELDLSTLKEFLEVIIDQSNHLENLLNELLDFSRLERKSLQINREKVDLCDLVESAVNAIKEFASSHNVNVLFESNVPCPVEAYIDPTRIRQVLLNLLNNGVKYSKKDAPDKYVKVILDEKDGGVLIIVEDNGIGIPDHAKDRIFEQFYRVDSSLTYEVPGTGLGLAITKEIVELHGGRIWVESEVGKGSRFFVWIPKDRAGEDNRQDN
Nature of the series: In vitro autophosphorylation kinase assay with γ-32P-ATP, HK853. Format: biochemical. The protocol: (§2) To evaluate the inhibitory capacity of selected hits from DSF, SBVS and LBSS in vitro autophosphorylation kinase assays with γ-^32P-ATP were performed as previously described. Ligands were dissolved in 100% DMSO. […] Controls lacking ligands contained an equal concentration of DMSO. Inhibition of autophosphorylation was determined by incubating 0.12 mg/ml (≈4 μM) HK and up to 20 mM fragment in kinase buffer (50 mM Tris HCl, pH 8.5, 50 mM KCl, 5 mM MgCl2, 0.5 mM EDTA and 0.1 mM DTT). Autophosporylation reactions were initiated by addition of 0.1 μCi/μl γ-^32P-ATP containing from 0.03 to 0.06 μM ATP (final concentrations). Autophosphorylation was quenched with 2xSDS-PAGE sample buffer supplemented with 50 mM EDTA. Samples were applied without heating to 15% (w/v) Tris-glycine SDS-polyacrylamide gels. After electrophoresis, the bottoms of the gels were removed to lower the background from the unincorporated radiolabeled ATP. Gels were dried without staining on a Bio-Rad Gel Air drying system and the phosphorylated protein was quantified by phosphor-imaging. Prism GraphPad was used for curve fitting and statistical analysis.

The target in series [2] is T1, E. coli PhoR (PhoR^E). Nature of the series: In vitro autophosphorylation kinase assay with γ-32P-ATP, PhoR^E. Format: biochemical. To be noted: autophosphorylation, one time point (30 sec), 10% DMSO. On the procedure: as §2, with “Samples were applied without heating to 15% (w/v) Tris-glycine SDS-polyacrylamide gels.” left out
The test system of another series is Staphylococcus aureus. Description: Antibacterial susceptibility testing (MIC/MBC), S. aureus. The class given is cell-based. To be noted: Staphylococcus aureus, DSM20231, strain DSM 20231; for MBC: read-out: MBC S. aureus DSM 20231; for MIC: read-out: MIC S. aureus DSM 20231. On the procedure:
(§3) Minimal inhibitory concentrations (MICs) were determined following a standard double-dilution method. […] For S. pneumoniae MICs were determined by adapting the standard double-dilution method to anaerobic conditions and of this microorganism (use of Todd Hewitt Yeast extract with 200 U/mL of catalase and continuous monitoring of growth).

The test system of series [3] is Staphylococcus epidermidis. Description: Antibacterial susceptibility testing (MIC/MBC), S. epidermidis. The class given is cell-based. As to conditions: for MBC / MIC: Staphylococcus epidermidis, DSM20044, strain DSM 20044; for MIC: read-out: MIC S. epidermidis DSM 20044; for MIC S. epidermidis DSM 20044: strain DSM 20044. The protocol:
as §3

The target in series [4] is T3, S. aureus PhoR (PhoR^S) (Staphylococcus aureus, UniProt Q2FXN7). Description: Aggregation analysis by native-PAGE, PhoR^S. To be noted: 2 mM (S5 and S6 5 mM), 10% DMSO. The protocol: as §1
T3 sequence (Q2FXN7 entry or part of it): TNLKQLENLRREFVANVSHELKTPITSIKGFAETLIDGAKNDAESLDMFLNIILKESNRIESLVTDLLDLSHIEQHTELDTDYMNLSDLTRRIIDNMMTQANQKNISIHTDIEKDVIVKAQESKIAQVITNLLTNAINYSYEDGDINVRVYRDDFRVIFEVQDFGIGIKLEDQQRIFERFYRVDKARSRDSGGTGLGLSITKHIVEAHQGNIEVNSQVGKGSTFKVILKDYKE
A further series concerns the target T4, S. pneumoniae WalK (Streptococcus pneumoniae, UniProt Q8DPL8).
T4 construct: WalK (amino acids from 208 to 449); N-terminal His6-3C site of vector pOPINF (own knowledge of the vector); made in house; host or cells: E. coli RIL
Nature of the series: In vitro autophosphorylation kinase assay with γ-32P-ATP, WalK. Format: biochemical. To be noted: autophosphorylation, one time point (30 sec), 10% DMSO. On the procedure: as §2, with “Samples were applied without heating to 15% (w/v) Tris-glycine SDS-polyacrylamide gels.” left out

Series [5] addresses T3, S. aureus PhoR (PhoR^S). Description: In vitro autophosphorylation kinase assay with γ-32P-ATP, PhoR^S. Format: biochemical. As to conditions: IC50 PhoR^S, autophosphorylation, one time point (30 sec), 10% DMSO. The protocol:
as §2

The nature of series [6]: Solubility in kinase buffer. As to conditions: kinase buffer with 10% DMSO, pH 8.5, aqueous with cosolvent or surfactant or cyclodextrin, kinetic from dmso stock; kinase buffer in the presence of 10% DMSO; read-out: concentration above which not soluble / reduced solubility in kinase buffer. Format: physicochemical.
A further series deals with Escherichia coli. Nature of the series: Antibacterial susceptibility testing (MIC/MBC), E. coli. The class given is cell-based. As to conditions: strain CFT 073; for MBC / MIC: Escherichia coli; for MBC: read-out: MBC E. coli CFT 073; for MIC: read-out: MIC E. coli CFT 073. On the procedure: as §3

Values after ≈ are worked out from the molar mass of the structure shown. Values joined by “and” are separate entries in the source; they are usually repeats but may differ in a detail not shown here. Equal entries are not always repeated. Where two headings read alike, the source gives them in different places. Marks after values point to notes of the source that are not given here.

T4 sequence (Q8DPL8 208-449): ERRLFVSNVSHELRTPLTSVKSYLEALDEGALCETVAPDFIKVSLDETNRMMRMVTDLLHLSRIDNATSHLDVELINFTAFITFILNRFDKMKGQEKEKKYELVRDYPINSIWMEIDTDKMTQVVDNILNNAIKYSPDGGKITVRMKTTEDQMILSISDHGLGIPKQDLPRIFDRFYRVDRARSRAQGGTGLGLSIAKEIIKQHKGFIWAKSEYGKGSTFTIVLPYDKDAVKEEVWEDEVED
T1 sequence (P08400 210-425): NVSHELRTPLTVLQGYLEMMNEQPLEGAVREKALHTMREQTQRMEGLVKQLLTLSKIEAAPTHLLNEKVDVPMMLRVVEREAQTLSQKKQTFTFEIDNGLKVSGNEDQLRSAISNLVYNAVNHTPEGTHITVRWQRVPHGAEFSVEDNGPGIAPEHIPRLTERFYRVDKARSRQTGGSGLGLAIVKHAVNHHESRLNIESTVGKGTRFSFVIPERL

A word on the IC50: it is the concentration that inhibits the measured activity by half. As a reminder, the MBC is the lowest tested concentration that kills the bacteria rather than only halting them. As a reminder, the MIC is the least concentration at which growth counts as inhibited. For the compound `CCC(Nc1cccc(NC(C)=O)c1)c1ccc(F)cc1` (centres unmarked) [S5], the “HK aggregation, PhoR^E” value at E. coli PhoR (PhoR^E) [1] was “do not cause HK aggregation”. For the same compound, the IC50 was > 5 mM at T. maritima HK853, ~1 mM against E. coli PhoR (PhoR^E) [2] (IC50 PhoR^E), > 1 mM against S. pneumoniae WalK (IC50 WalK) and ~1 mM at S. aureus PhoR (PhoR^S) [5]. In addition, the MBC (in the series on Staphylococcus aureus; in series [3]; with Escherichia coli) was > 500 µg/mL throughout. Also, the MIC is > 500 µg/mL in the series with Staphylococcus aureus, 500 µg/mL (≈ 1750 µM) in series [3] and > 500 µg/mL in the series with Escherichia coli. Moreover, the “MIC S. epidermidis DSM 20044” value in series [3] was 500^# μg/ml. Also, the “HK aggregation, PhoR^S” value on S. aureus PhoR (PhoR^S) [4] is “do not cause HK aggregation”. In addition, the solubility in series [6] is ≤ 1300 µM.

With `CC(=O)Nc1cccc(C(C)NCc2cccc(Br)c2)c1` (centres unmarked) [S6], on E. coli PhoR (PhoR^E) [1], the “HK aggregation, PhoR^E” value is on record as “do not cause HK aggregation”. In addition, the IC50 on T. maritima HK853 (autophosphorylation, one time point (30 sec), 10% DMSO, read-out: IC50 HK853) was > 5 mM; at E. coli PhoR (PhoR^E) [2] (read-out: IC50 PhoR^E), 0.372 mM and 0.37 mM; against S. pneumoniae WalK (IC50 WalK) it was ~1 mM; on S. pneumoniae WalK (read-out: IC50 WalK), > 1 mM; against S. aureus PhoR (PhoR^S) [5], 1.14 mM. Besides, the minimal bactericidal concentration (MBC) (in the series with Staphylococcus aureus; in series [3]; with Escherichia coli) was > 500 µg/mL in each case. The minimal inhibitory concentration (MIC) with Staphylococcus aureus is > 500 µg/mL; in series [3], 500 µg/mL (≈ 1440 µM); in the series with Escherichia coli, 500 µg/mL (≈ 1440 µM). Besides, in [3], the “MIC S. epidermidis DSM 20044” value is on record as 500^# μg/ml. Also, the “HK aggregation, PhoR^S” value on S. aureus PhoR (PhoR^S) [4] is “do not cause HK aggregation”. For the same compound, the “MIC E. coli CFT 073” value in the series with Escherichia coli is listed as 500^# μg/ml.
